# Laboratory results: patent US10010541B2, “Modulation of tissue transglutaminase activation in disease” (The Board of Trustees of the Leland Stanford Junior …, priority 2014, dated 2018)
# Tested on: proinflammatory cytokines IL-6, PAI-1 and MIP1α
# Assay: circulating proinflammatory cytokines in LPS-induced murine sepsis (ELISA)
# Type: in vivo, mice
# Procedure: FIG. 3: The TG2 inhibitor CK996 reduces the proinflammatory cytokine load in septic mice at doses as low as 1.5 mg/kg: The graphs display the absolute circulating levels of the proinflammatory cytokines IL-6, PAI-1 and MIP1α in septic male BL6 mice as a function of the dose of intraperitoneally administered CK996 or ERW1041E. In each graph, the right y-axis depicts the relative levels of the respective cytokines over their background level in our control cohort. All septic mice in this study received lipopolysaccharide (LPS, 5 mg/kg i.v., at t=0) and either a TG2 inhibitor (CK996 or ERW1041E at 50, 15, 5.0 and 1.5 mg/kg i.p., at t=0 and 60 min) in vehicle (PBS with 5% DMSO, 2% Tween-80 and 2.5% hydroxypropyl-beta-cyclodextrin) or, for the septic control cohort, vehicle alone. An additional cohort defining the baseline cytokine levels received only intravenous vehicle and intraperitoneal inhibitor vehicle, respectively. At 3 hours the mice were euthanized and plasma collected in lithium heparin tubes. The levels of the respective proinflammatory cytokines were quantified using commercial ELISA kits according to the manufacturers' instructions. […]
# Having established that intraperitoneal administration of CK996 could suppress TG2 activity in septic mice, we next sought to determine whether this pharmacologic intervention had any effect on the circulating levels of the key proinflammatory cytokines in sepsis. To this end, we administered CK996 in doses of 1.5, 5.0, 15 or 50 mg/kg intraperitoneally to septic mice (5 mg/kg LPS, iv) and measured the level of the proinflammatory cytokines IL-6, PAI-1 and MIP1α in plasma that was collected at 3 hours after infusion of LPS.
# We therefore co-administered recombinant human thioredoxin protein (10 mg/kg, ip) along with CK996 (50 mg/kg, ip) to septic mice (5 mg/kg, iv) and quantified the load of proinflammatory cytokines as above.
smiles,measurement,setting,value
"O=C(N[C@@H]1C[C@@H](C(=O)NC[C@@H]2CC(Br)=NO2)N(C(=O)OCc2cnc3ccccc3c2)C1)c1cccnc1 [Compound 5, (2S,4R)-quinolin-3-ylmethyl 2-((((S)-3-bromo-4,5-dihydroisoxazol-5-yl)methyl)carbamoyl)-4-(nicotinamido)pyrrolidine-1-carboxylate]","circulating levels of IL-6, PAI-1 and MIP1α","septic mice (LPS 5 mg/kg iv), all doses tested (1.5, 5.0, 15 or 50 mg/kg ip), plasma at 3 hours",dramatically reduced
same,dose that reduces the proinflammatory cytokine load,"septic mice, ip at t=0 and 60 min",≤ 1.5 mg/kg
